Results on eight compounds are retold here after US10070660B2, “Pet food palatability with antimicrobial properties based on organic acids” (KEMIN INDUSTRIES, INC., priority 2012, dated 2018).

One assay has as its system cats. Put plainly: Cat palatability, two-pan method (intake ratio). It is filed as in vivo. The conditions noted are these: for effect on palatability / taste (in words): summary statement, no trial details; for IR-A: Ration B incumbent.
Assay [1] has as its system Salmonella (five Salmonella enterica serovars). Kind of assay: Cat kibble challenge with dried five strain Salmonella cocktail inoculum. It counts as cell-based. Particulars: for Salmonella counts on challenged cat kibble vs control palatant (in words): cat kibble challenge. Here is the method:
(§1) One ml of each Salmonella culture was separately inoculated into a beaker containing tempered (ambient), sterilized MBM which was then incubated at 37° C. for 48 hours. Inoculated MBM was dispensed (approx. 200 g) into sterile 250 ml centrifuge bottles and centrifuged at 5,000 rpm for 10 minutes. The supernatant was decanted and autoclaved for disposal. The pellets were suspended in 10 ml TSB-20% glycerol. Suspensions (approximately 150-160 g) were transferred to sterilized 250 ml polycarbonate straight side wide mouth jars with lids (Nalgene, Thermo Scientific). Jars containing MBM-Salmonella suspensions were immediately frozen at −70° C. for 1 hour. Frozen MBM-Salmonella suspensions were lyophilized using a FreeZone-1 Liter benchtop freeze dry system (Labconco) (approx. 96 hours, −50° C.). Each lyophilized Salmonella culture was pulverized to a fine powder using a sterile mortar and pestle. Twenty g of each of the five lyophilized Salmonella cultures was combined in a sterile wide mouth glass jar to make the dried Salmonella cocktail inoculum. […] Solidified plates were incubated inverted at 37° C. for 16-18 hours. Visible colonies were counted and colony forming units per gram were calculated (CFU/g). […] Kibble and inoculum were mixed together for five minutes by hand in a plastic zip top bag, and allowed to rest for 1 hour prior to sampling. Coated, un-inoculated kibble was also included in the study and tested for Salmonella (direct plating and FDA BAM), total aerobic bacteria, mold and yeast counts, pH, percent moisture, and water activity. For each analysis time point challenged kibble was sampled in triplicate. Kibbles were stored at ambient temperature.
(§2) Challenged kibble samples bags were mixed thoroughly, then 5.00 g (±0.01) was aseptically weighed into a sterile plastic bag and diluted with 45 ml sterile Phosphate Buffer (Butterfield) diluent (BPB) containing (g/l) KH2PO4 34.0, pH adjusted to 7.2 with 1N sodium hydroxide and homogenized using a Stomacher (Seward Stomacher 80) for 1 minute and serially diluted in BPB for plating. The plates are poured with tempered (45° C.) XLD agar. After solidification, plates were inverted and placed in an incubator (37° C.). Colonies were counted and CFU/g was calculated. The counts for each triplicate sample were averaged and expressed as log CFU/g. Those samples of which were below the detection limit of <10 CFU/g were assigned 0 log CFU/g for the purpose of statistical analysis. Analysis of Variance using the LSD separation of means method was performed to analyze the data using StatGraphics software (StatPoint Technologies, Inc. Warrenton, Va.).
All procedures for the Phase 3 kibble challenge were conducted as described for Phase 2.

The test system is the same in assay [2]. Kind of assay: Dog kibble challenge with dried five strain Salmonella cocktail inoculum. It counts as cell-based. Particulars: dog kibble challenge. The protocol:
as §1, §2
Dry dog palatants were formulated with fumaric acid or SBS to deliver 0.5% acid to the surface of the kibble. The effect of each acid on Salmonella challenged on the surface of dog kibble was examined. Dog kibbles were challenged with dried five strain Salmonella cocktail inoculum.
The effect of each acid on Salmonella challenged on the surface of dog kibble was examined. Dog kibbles were challenged with dried five strain Salmonella cocktail inoculum prep.

Setting [3] is: Example 4 cat trials, formula 89-87 or 89-145 vs incumbent dry palatant.
Setting [4] is: Second set, Formula 89-87, 0.25% acid on kibble.
Setting [5] is: Second set, Formula 89-87, 0.5% total acid on kibble.
Where [6] appears, read: First set, Prototype 89-87 at 2.5%, 0.25% acid on kibble.
[7] abbreviates: First set, Prototype 89-87 at 2.5%, 0.5% total acid on kibble.
Setting [8] is: Table 14, single acid 0.5% on cat kibble, day 0.
The mark [9] stands for this setting: Table 14, single acid 0.5% on cat kibble, day 1.
[10] abbreviates: Table 14, single acid 0.5% on cat kibble, day 3.
The mark [11] stands for this setting: Table 14, single acid 0.5% on cat kibble, day 7.
The mark [12] stands for this setting: Table 14, single acid 0.5% on cat kibble, day 14.
The mark [13] stands for this setting: Table 14, single acid 0.5% on cat kibble, day 23.

Turning to `O=C(O)CC(O)C(=O)O` (stereo not drawn) [Malic acid, reference compound], the “effect on palatability / taste (in words)” value in the assay on cats is “adverse effects on palatability”.

With `O=C(O)c1cc(O)c(O)c(O)c1` [GA, gallic acid], in the assay with cats (setting [3]), the “palatability (in words)” value is recorded as “very good palatability”. In addition, the IR-A is listed as 0.55 (N.S.) in the assay on cats (setting [4]) and 0.70 (p ≤ 0.001) with cats (setting [5]).

Consider `O=C(O)/C=C\C(=O)O` [maleic acid, reference compound], for which the “effect on palatability / taste (in words)” value in the assay on cats is “repulsive, astringent taste”.

For `C/C=C/C=C/C(=O)O` [Sorbic Acid, sorbic acid], the IR-A in the assay on cats (Confirmation trials, Prototype 89-87, 0.5% total acid on kibble) was 0.59 p ≤ 0.001); in the assay on cats (setting [6]), 0.74 (p ≤ 0.001); in the assay on cats (setting [7]), 0.70 (p ≤ 0.001). In addition, the “palatability (in words)” value in the assay on cats (Example 4 cat trials, formula 89-87 or 89-145 vs incumbent dry palatant, listed as Sorbic acid) is listed as “scored significantly higher than the incumbent flavor”; in the assay with cats (Example 4 cat trials, formula 89-87 or 89-145 vs incumbent dry palatant, listed as sorbic acid), “remained high”. For the same compound, the Salmonella in assay [1] (Table 12, 0.50% total acid on cat kibble, day 0) was 3.50 ± 0.06^Ba log CFU/g; in assay [1] (Table 12, 0.50% total acid on cat kibble, day 1) it was 2.10 ± 0.08^Bb log CFU/g; in assay [1] (Table 12, 0.50% total acid on cat kibble, day 5), 0.77 ± 0.39^Bc log CFU/g; in assay [1] (Table 12, 0.50% total acid on cat kibble, day 7), 0.49 ± 0.49^Bc log CFU/g; in assay [1] (Table 12, 0.50% total acid on cat kibble, day 14), 0.67 ± 0.33^Bc log CFU/g; in assay [1] (Table 12, 0.50% total acid on cat kibble, day 21) it was 0.00 ± 0.00^Bc log CFU/g. For the same compound, the “Salmonella counts on challenged cat kibble vs control palatant (in words)” value in assay [1] (listed as sorbic) is “effective at significantly reducing Salmonella”; in assay [1] (listed as sorbic acid), “significantly lower”. In addition, the “Salmonella counts on challenged dog kibble vs control palatant (in words)” value in assay [2] is “effective at significantly reducing Salmonella”.

Consider `O=C(O)CC(O)(CC(=O)O)C(=O)O` [CA, citric acid], for which the “palatability (in words)” value in the assay with cats (setting [3]) is “adequate palatability”. Also, the IR-A in the assay on cats (setting [5]) is 0.46% (N.S.). Also, the Salmonella in assay [1] (setting [8]) is recorded as 2.05 ± 0.05^Ba log CFU/g; in assay [1] (setting [9]), 1.54 ± 0.16^BCDab log CFU/g; in assay [1] (setting [10]), 1.46 ± 0.09^ABb log CFU/g; in assay [1] (setting [11]), 0.77 ± 0.39^ABc log CFU/g; in assay [1] (setting [12]), 0.00 ± 0.00^Bd log CFU/g; in assay [1] (setting [13]), 0.00 ± 0.00^Bd log CFU/g. Besides, the “Salmonella counts on challenged cat kibble vs control palatant (in words)” value in assay [1] is “effective at significantly reducing Salmonella”.

On to `O=C(O)CCC(=O)O` [Suc, succinic acid], for which the “palatability (in words)” value with cats (setting [3]) is listed as “palatable alternate to fumaric acid”. The IR-A with cats (setting [6]) is reported as 0.56 (N.S.); in the assay with cats (setting [7]), 0.54 (N.S.). In addition, in assay [1], the “Salmonella counts on challenged cat kibble vs control palatant (in words)” value was “effective at significantly reducing Salmonella”. The “Salmonella counts on challenged dog kibble vs control palatant (in words)” value in assay [2] was “effective at significantly reducing Salmonella”.

For the compound `O=C(O)C(O)C(O)C(=O)O` (stereo not drawn) [tartaric acid, reference compound], the “palatability (in words)” value in the assay with cats (Example 1 cat trials, dry palatant 1.5% on kibble, vs benchmark) is “significant declines in palatability”. Also, in the assay with cats (Trial 412, 33% tartaric acid in formula, palatant 1.5% on kibble, vs name brand cat food), the IR is reported as 0.24. Further, the “effect on palatability / taste (in words)” value in the assay on cats is “adverse effects on palatability”.

Turning to `O=C(OC[C@H]1O[C@@H](OC(=O)c2cc(O)c(O)c(OC(=O)c3cc(O)c(O)c(O)c3)c2)[C@H](OC(=O)c2cc(O)c(O)c(OC(=O)c3cc(O)c(O)c(O)c3)c2)[C@@H](OC(=O)c2cc(O)c(O)c(OC(=O)c3cc(O)c(O)c(O)c3)c2)[C@@H]1OC(=O)c1cc(O)c(O)c(OC(=O)c2cc(O)c(O)c(O)c2)c1)c1cc(O)c(O)c(OC(=O)c2cc(O)c(O)c(O)c2)c1` [TA, tannic acid], the “palatability (in words)” value with cats (setting [3]) is recorded as “acceptable palatability”. In addition, the IR-A in the assay on cats (setting [4]) is listed as 0.55 (N.S). The Salmonella was 3.19 ± 0.17^Aa log CFU/g in assay [1] (setting [8]); 2.51 ± 0.26^Ab log CFU/g in assay [1] (setting [9]); 2.05 ± 0.18^Ab log CFU/g in assay [1] (setting [10]); 1.50 ± 0.10^Ac log CFU/g in assay [1] (setting [11]); 1.46 ± 0.16^Ac log CFU/g in assay [1] (setting [12]); 0.00 ± 0.00^Bd log CFU/g in assay [1] (setting [13]). Also, in assay [1], the “Salmonella counts on challenged cat kibble vs control palatant (in words)” value is on record as “effective at significantly reducing Salmonella”.
